This note sets out measurements from ChEMBL document CHEMBL4130381, “Puromycin based inhibitors of aminopeptidases for the potential treatment of hematologic malignancies” (Eur J Med Chem, 2017).

SMILES strings stand for the structures. pEC50, pIC50: −log10 of the molar value.

Aminopeptidase N, sequence (P15144 whole entry): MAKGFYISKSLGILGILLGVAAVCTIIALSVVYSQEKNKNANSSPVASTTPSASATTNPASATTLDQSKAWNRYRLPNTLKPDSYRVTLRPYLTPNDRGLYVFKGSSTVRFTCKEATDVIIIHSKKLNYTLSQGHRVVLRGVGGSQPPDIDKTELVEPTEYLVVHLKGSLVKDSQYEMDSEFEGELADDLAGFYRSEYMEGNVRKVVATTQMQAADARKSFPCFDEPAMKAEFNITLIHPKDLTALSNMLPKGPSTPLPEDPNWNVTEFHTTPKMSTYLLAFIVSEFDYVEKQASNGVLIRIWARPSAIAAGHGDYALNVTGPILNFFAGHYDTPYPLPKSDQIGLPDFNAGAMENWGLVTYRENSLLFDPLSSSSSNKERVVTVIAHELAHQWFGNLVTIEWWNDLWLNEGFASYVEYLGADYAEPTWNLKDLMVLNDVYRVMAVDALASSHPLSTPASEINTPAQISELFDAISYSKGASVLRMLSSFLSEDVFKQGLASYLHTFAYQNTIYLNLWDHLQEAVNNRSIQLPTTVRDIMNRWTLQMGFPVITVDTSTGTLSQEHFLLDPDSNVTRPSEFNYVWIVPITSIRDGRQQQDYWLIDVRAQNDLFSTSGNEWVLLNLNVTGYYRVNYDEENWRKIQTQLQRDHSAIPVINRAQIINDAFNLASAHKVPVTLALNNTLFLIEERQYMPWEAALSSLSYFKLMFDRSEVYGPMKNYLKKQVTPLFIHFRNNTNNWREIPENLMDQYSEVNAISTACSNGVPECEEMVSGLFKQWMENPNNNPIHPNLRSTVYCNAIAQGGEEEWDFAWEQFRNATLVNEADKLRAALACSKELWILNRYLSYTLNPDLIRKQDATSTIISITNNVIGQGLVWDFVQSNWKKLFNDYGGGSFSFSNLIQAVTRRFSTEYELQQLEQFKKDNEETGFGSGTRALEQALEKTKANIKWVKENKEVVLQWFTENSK

The target in the first data set is Puromycin-sensitive aminopeptidase (Homo sapiens, UniProt P55786). In words: Inhibition of recombinant human N-terminal His6-MBP-tagged PSA expressed in Escherichia coli BL21 STAR (DE3) using 4-Ala-MNA as substrate measured for 30 mins by thefluorescence assay.
Puromycin-sensitive aminopeptidase, sequence (P55786 whole entry): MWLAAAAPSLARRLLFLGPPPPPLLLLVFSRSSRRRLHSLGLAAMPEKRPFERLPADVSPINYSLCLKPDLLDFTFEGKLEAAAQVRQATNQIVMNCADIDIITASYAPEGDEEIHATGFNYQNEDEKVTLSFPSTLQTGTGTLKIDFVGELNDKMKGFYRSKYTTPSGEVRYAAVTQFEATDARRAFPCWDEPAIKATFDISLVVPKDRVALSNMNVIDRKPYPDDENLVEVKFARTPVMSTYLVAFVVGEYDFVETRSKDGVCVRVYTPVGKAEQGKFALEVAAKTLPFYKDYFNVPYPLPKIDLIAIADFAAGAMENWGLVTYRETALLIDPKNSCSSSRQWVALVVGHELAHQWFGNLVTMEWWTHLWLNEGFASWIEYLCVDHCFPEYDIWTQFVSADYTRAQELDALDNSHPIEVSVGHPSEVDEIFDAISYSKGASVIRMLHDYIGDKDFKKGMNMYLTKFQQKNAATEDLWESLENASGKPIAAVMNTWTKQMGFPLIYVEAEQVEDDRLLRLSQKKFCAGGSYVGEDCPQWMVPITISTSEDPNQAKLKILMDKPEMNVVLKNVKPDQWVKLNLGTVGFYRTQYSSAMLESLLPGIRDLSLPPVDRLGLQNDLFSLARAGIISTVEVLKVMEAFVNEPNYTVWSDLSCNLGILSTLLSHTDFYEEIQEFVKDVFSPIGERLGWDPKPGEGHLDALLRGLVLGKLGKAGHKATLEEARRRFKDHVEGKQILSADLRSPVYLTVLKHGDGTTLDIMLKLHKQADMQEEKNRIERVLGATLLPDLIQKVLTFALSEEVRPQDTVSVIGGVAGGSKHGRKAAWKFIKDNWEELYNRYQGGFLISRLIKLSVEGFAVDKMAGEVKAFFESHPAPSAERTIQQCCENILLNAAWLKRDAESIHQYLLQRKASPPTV
Conditions: not given
As a reminder, the pIC50 is −log10 of the IC50, conventionally taken in molar units. Turning to `COc1ccc(C[C@H](N)C(=O)N[C@H]2[C@@H](O)[C@H](n3cnc4c(N(C)C)ncnc43)O[C@@H]2CO)cc1` [PUROMYCIN], the pIC50 was 5.01.

Turning to `CC(C)C[C@@H](C(=O)N[C@H](C(=O)OC1CCCC1)c1ccccc1)[C@H](O)C(=O)NO` [TOSEDOSTAT], the negative logarithm of the IC50 (pIC50) is 6.59.

Take `CC(C)C[C@H](NC(=O)[C@@H](O)[C@H](N)Cc1ccccc1)C(=O)O` [UBENIMEX]: the pIC50 was 5.46.

A further data set concerns GFP protein synthesis. Kind of data set: Toxicity in human HeLa cells expressing pCFE-GFP assessed as inhibition of GFP proetin synthesis at 10 uM incubated for 30 mins measured for 2 hrs by spectrophotometric method relative to control. It counts as cell-based.
Conditions: not given
In general, inhibition refers to the change of the read-out against control, counted positive when it falls. Consider `CN(C)c1ncnc2c1ncn2[C@@H]1O[C@H](CO)[C@@H](NC(=O)[C@@H](N)CSCc2ccccc2)[C@H]1O`, for which the inhibition at 30 min, 10 µM was determined as 30%.

In the next data set the test system is MOLT-4. In words: cells. Particulars: Homo sapiens, MOLT-4, 72 h.
Description: Antiproliferative activity against human MOLT4 cells after 72 hrs by MTT assay
A word on the pEC50: it is the EC50 on a negative log10 scale, so that one unit is a factor of ten. For `CN(C)c1ncnc2c1ncn2[C@@H]1O[C@H](CO)[C@@H](NC(=O)[C@@H](N)CSCc2ccccc2)[C@H]1O`, the negative logarithm of the EC50 (pEC50) was 6.74.

`CN(C)c1ncnc2c1ncn2[C@@H]1O[C@H](CO)[C@@H](NC(=O)[C@@H](N)CSC(c2ccccc2)c2ccccc2)[C@H]1O` gave a pEC50 of 5.89.

`CN(C)c1ncnc2c1ncn2[C@@H]1O[C@H](CO)[C@@H](NC(=O)[C@@H](N)Cc2ccccc2)[C@H]1O` gave a negative logarithm of the EC50 (pEC50) of 6.41.

Take `N[C@@H](CSC(c1ccccc1)c1ccccc1)C(=O)NCCCO`: the negative-log EC50 (pEC50) was less than 4.00.

`CN(C)c1ncnc2c1ncn2[C@@H]1O[C@H](CO)[C@@H](NC(=O)[C@H](N)CSC(c2ccccc2)c2ccccc2)[C@H]1O` gave a negative logarithm of the EC50 (pEC50) of 4.96.

Turning to `CN(C)c1ncnc2c1ncn2[C@@H]1O[C@H](CO)[C@@H](NC(=O)[C@@H](N)CSC(c2ccccc2)(c2ccccc2)c2ccccc2)[C@H]1O`, the negative logarithm of the EC50 (pEC50) is 4.51.

`CN(C)c1ncnc2c1ncn2[C@@H]1O[C@H](CO)[C@@H](NC(=O)[C@H](N)CSC(c2ccccc2)(c2ccccc2)c2ccccc2)[C@H]1O` showed a pEC50 of 4.85.

In the case of `CN(C)c1ncnc2c1ncn2[C@@H]1O[C@H](CO)[C@@H](NC(=O)[C@H](N)CSCc2ccccc2)[C@H]1O`, the pEC50 was 4.85.

In the case of `COc1ccc(C[C@H](N)C(=O)N[C@H]2[C@@H](O)[C@H](n3cnc4c(N(C)C)ncnc43)O[C@@H]2CO)cc1` [PUROMYCIN], the pEC50 was 6.77.

Turning to `CC(C)C[C@@H](C(=O)N[C@H](C(=O)OC1CCCC1)c1ccccc1)[C@H](O)C(=O)NO` [TOSEDOSTAT], the pEC50 was 5.68.

For `CC(C)C[C@H](NC(=O)[C@@H](O)[C@H](N)Cc1ccccc1)C(=O)O` [UBENIMEX], the pEC50 is less than 4.00.

Another data set has as its system HL-60. In words: cells. As to conditions: Homo sapiens, HL-60, 72 h.
Description: Antiproliferative activity against human HL60 cells after 72 hrs by MTT assay
The compound `CN(C)c1ncnc2c1ncn2[C@@H]1O[C@H](CO)[C@@H](NC(=O)[C@@H](N)CSCc2ccccc2)[C@H]1O` gave a pEC50 of 6.72.

In the case of `CN(C)c1ncnc2c1ncn2[C@@H]1O[C@H](CO)[C@@H](NC(=O)[C@@H](N)CSC(c2ccccc2)c2ccccc2)[C@H]1O`, the pEC50 is 4.49.

In turn, `CN(C)c1ncnc2c1ncn2[C@@H]1O[C@H](CO)[C@@H](NC(=O)[C@@H](N)Cc2ccccc2)[C@H]1O` showed a negative-log EC50 (pEC50) of 6.39.

`N[C@@H](CSC(c1ccccc1)c1ccccc1)C(=O)NCCCO` showed a negative-log EC50 (pEC50) of less than 4.00.

The compound `CN(C)c1ncnc2c1ncn2[C@@H]1O[C@H](CO)[C@@H](NC(=O)[C@H](N)CSC(c2ccccc2)c2ccccc2)[C@H]1O` showed a pEC50 of 4.47.

With `CN(C)c1ncnc2c1ncn2[C@@H]1O[C@H](CO)[C@@H](NC(=O)[C@@H](N)CSC(c2ccccc2)(c2ccccc2)c2ccccc2)[C@H]1O`, the negative logarithm of the EC50 (pEC50) was less than 4.00.

In turn, `CN(C)c1ncnc2c1ncn2[C@@H]1O[C@H](CO)[C@@H](NC(=O)[C@H](N)CSC(c2ccccc2)(c2ccccc2)c2ccccc2)[C@H]1O` gave a pEC50 of 5.00.

`CN(C)c1ncnc2c1ncn2[C@@H]1O[C@H](CO)[C@@H](NC(=O)[C@H](N)CSCc2ccccc2)[C@H]1O` had a pEC50 of 4.34.

With `COc1ccc(C[C@H](N)C(=O)N[C@H]2[C@@H](O)[C@H](n3cnc4c(N(C)C)ncnc43)O[C@@H]2CO)cc1` [PUROMYCIN], the pEC50 is 7.26.

In turn, `CC(C)C[C@@H](C(=O)N[C@H](C(=O)OC1CCCC1)c1ccccc1)[C@H](O)C(=O)NO` [TOSEDOSTAT] showed a pEC50 of 5.33.

Turning to `CC(C)C[C@H](NC(=O)[C@@H](O)[C@H](N)Cc1ccccc1)C(=O)O` [UBENIMEX], the pEC50 was less than 4.00.

System in a further data set: not listed separately
In words: Cytotoxicity against African green monkey Vero cells assessed as reduction in cell proliferation after 72 hrs by MTT assay. It counts as cell-based. As to conditions: chlorocebus sabaeus. On the technique in general: Formazan colour is commonly taken as a measure of viable cells.
In general, CC50 refers to the concentration giving 50% cytotoxicity. For `CN(C)c1ncnc2c1ncn2[C@@H]1O[C@H](CO)[C@@H](NC(=O)[C@@H](N)CSCc2ccccc2)[C@H]1O`, the CC50 at 72 h turned out to be 0.88 µM.

As for `CN(C)c1ncnc2c1ncn2[C@@H]1O[C@H](CO)[C@@H](NC(=O)[C@@H](N)CSC(c2ccccc2)c2ccccc2)[C@H]1O`, the 50% cytotoxic concentration (CC50) at 72 h is greater than 100 µM.

With `CN(C)c1ncnc2c1ncn2[C@@H]1O[C@H](CO)[C@@H](NC(=O)[C@@H](N)Cc2ccccc2)[C@H]1O`, the CC50 at 72 h came out at 3.2 µM.

On to `N[C@@H](CSC(c1ccccc1)c1ccccc1)C(=O)NCCCO`, for which the cytotoxic concentration (CC50) at 72 h is greater than 100 µM.

Turning to `CN(C)c1ncnc2c1ncn2[C@@H]1O[C@H](CO)[C@@H](NC(=O)[C@H](N)CSC(c2ccccc2)c2ccccc2)[C@H]1O`, the CC50 at 72 h amounted to 46 µM.

In the case of `CN(C)c1ncnc2c1ncn2[C@@H]1O[C@H](CO)[C@@H](NC(=O)[C@@H](N)CSC(c2ccccc2)(c2ccccc2)c2ccccc2)[C@H]1O`, the cytotoxic concentration (CC50) at 72 h is greater than 100 µM.

On to `CN(C)c1ncnc2c1ncn2[C@@H]1O[C@H](CO)[C@@H](NC(=O)[C@H](N)CSC(c2ccccc2)(c2ccccc2)c2ccccc2)[C@H]1O`, for which the cytotoxic concentration (CC50) at 72 h came out at 15 µM.

Regarding `CN(C)c1ncnc2c1ncn2[C@@H]1O[C@H](CO)[C@@H](NC(=O)[C@H](N)CSCc2ccccc2)[C@H]1O`, the CC50 at 72 h was 17 µM.

With `COc1ccc(C[C@H](N)C(=O)N[C@H]2[C@@H](O)[C@H](n3cnc4c(N(C)C)ncnc43)O[C@@H]2CO)cc1` [PUROMYCIN], the cytotoxic concentration (CC50) at 72 h stood at 2.8 µM.

On to `CC(C)C[C@@H](C(=O)N[C@H](C(=O)OC1CCCC1)c1ccccc1)[C@H](O)C(=O)NO` [TOSEDOSTAT], for which the half-maximal cytotoxic concentration (CC50) at 72 h came to 13 µM.

For `CC(C)C[C@H](NC(=O)[C@@H](O)[C@H](N)Cc1ccccc1)C(=O)O` [UBENIMEX], the CC50 at 72 h lay in the range of 25 to 100 µM.

Another data set has as its target Aminopeptidase N (Homo sapiens, UniProt P15144). Kind of data set: Inhibition of recombinant human C-terminal His10-tagged APN (Lys69 to Lys967 residues) using Ala-AMC as substrate measured for 30 mins by fluorescence assay.
Conditions: not given
Take `COc1ccc(C[C@H](N)C(=O)N[C@H]2[C@@H](O)[C@H](n3cnc4c(N(C)C)ncnc43)O[C@@H]2CO)cc1` [PUROMYCIN]: the negative-log IC50 (pIC50) is 4.39.

For `CC(C)C[C@@H](C(=O)N[C@H](C(=O)OC1CCCC1)c1ccccc1)[C@H](O)C(=O)NO` [TOSEDOSTAT], the negative-log IC50 (pIC50) was 6.17.

Another data set concerns GFP protein synthesis. Kind of data set: Toxicity in human HeLa cells expressing pCFE-GFP assessed as inhibition of GFP proetin synthesis at 25 uM incubated for 30 mins measured for 2 hrs by spectrophotometric method relative to control.
Conditions: not given
It counts as cell-based.
Turning to `CN(C)c1ncnc2c1ncn2[C@@H]1O[C@H](CO)[C@@H](NC(=O)[C@@H](N)CSCc2ccccc2)[C@H]1O`, the inhibition at 30 min, 25 µM amounted to 30%.

As to `CN(C)c1ncnc2c1ncn2[C@@H]1O[C@H](CO)[C@@H](NC(=O)[C@@H](N)CSC(c2ccccc2)c2ccccc2)[C@H]1O`, the inhibition at 30 min, 25 µM amounted to 0%.

For `CN(C)c1ncnc2c1ncn2[C@@H]1O[C@H](CO)[C@@H](NC(=O)[C@@H](N)Cc2ccccc2)[C@H]1O`, the inhibition at 30 min, 25 µM was 59%.

Regarding `N[C@@H](CSC(c1ccccc1)c1ccccc1)C(=O)NCCCO`, the inhibition at 30 min, 25 µM came out at 0%.

As to `CN(C)c1ncnc2c1ncn2[C@@H]1O[C@H](CO)[C@@H](NC(=O)[C@H](N)CSC(c2ccccc2)c2ccccc2)[C@H]1O`, the inhibition at 30 min, 25 µM was 0%.

On to `CN(C)c1ncnc2c1ncn2[C@@H]1O[C@H](CO)[C@@H](NC(=O)[C@@H](N)CSC(c2ccccc2)(c2ccccc2)c2ccccc2)[C@H]1O`, for which the inhibition at 30 min, 25 µM worked out at 0%.

Consider `CN(C)c1ncnc2c1ncn2[C@@H]1O[C@H](CO)[C@@H](NC(=O)[C@H](N)CSC(c2ccccc2)(c2ccccc2)c2ccccc2)[C@H]1O`, for which the inhibition at 30 min, 25 µM was found to be 0%.

Take `CN(C)c1ncnc2c1ncn2[C@@H]1O[C@H](CO)[C@@H](NC(=O)[C@H](N)CSCc2ccccc2)[C@H]1O`: the inhibition at 30 min, 25 µM amounted to 0%.

Take `COc1ccc(C[C@H](N)C(=O)N[C@H]2[C@@H](O)[C@H](n3cnc4c(N(C)C)ncnc43)O[C@@H]2CO)cc1` [PUROMYCIN]: the inhibition at 30 min, 25 µM was found to be 99%.

As to `CC(C)C[C@@H](C(=O)N[C@H](C(=O)OC1CCCC1)c1ccccc1)[C@H](O)C(=O)NO` [TOSEDOSTAT], the inhibition at 30 min, 25 µM is 35%.

With `CC(C)C[C@H](NC(=O)[C@@H](O)[C@H](N)Cc1ccccc1)C(=O)O` [UBENIMEX], the inhibition at 30 min, 25 µM was found to be 28%.
